In this assay the target is Histone deacetylase (Homo sapiens) (UniProt Q13547+O15379+Q9UBN7+Q92769+Q9UQL6+Q8WUI4+Q9BY41+Q96DB2+P56524+Q9UKV0+Q969S8). In words: Inhibition of HDAC in human HeLa nuclear extract at 1 uM using Boc-Lys(acetyl)-AMC as fluorogenic substrate measured after 1 hr by flourescence plate reader method relative to control. The format is subcellular. Conditions: Nucleus.

SMILES strings stand for the structures.

As usually defined, the inhibition is how much of the control response was suppressed. Read a low inhibition as a response near the control. `O=C(CCCSC[C@H](NS(=O)(=O)c1cccc(F)c1)C(=O)N[C@@H](Cc1c[nH]c2ccccc12)C(=O)NC1CCC1)NO` returned an inhibition of 82%.

The values are drawn from ChEMBL document CHEMBL5055644, “Cysteine derivatives as acetyl lysine mimics to inhibit zinc-dependent histone deacetylases for treating cancer” (Eur J Med Chem, 2021).
